Measured values published in the NIST ThermoML archive (doi:10.1016/j.fluid.2012.01.014).
± gives the expanded uncertainty stated by the source.

Experiment: cn = amount concentration of the nth substance listed, in mol/dm3
Conditions: Ring tensiometer

## O [water] + CCCCCCCCCCCC[N+](C)(C)Cc1ccccc1.[Br-]
293 K, c2 = 0
  surface tension liquid-gas: 72.8 ± 1.3 mN/m
303 K, c2 = 0
  surface tension liquid-gas: 71.2 ± 1.3 mN/m
313 K, c2 = 0
  surface tension liquid-gas: 69.6 ± 1.3 mN/m

## CCCCCCCCCCCC[N+](C)(C)CC.[Br-] [dodecyl ethyl dimethylammonium bromide] + O
293 K, c1 = 1e-07
  surface tension liquid-gas: 72.6 ± 1.3 mN/m
293 K, c1 = 5.01e-07
  surface tension liquid-gas: 72.4 ± 1.3 mN/m
293 K, c1 = 1e-06
  surface tension liquid-gas: 72.3 ± 1.3 mN/m
293 K, c1 = 5.01e-06
  surface tension liquid-gas: 72.2 ± 1.3 mN/m
293 K, c1 = 1e-05
  surface tension liquid-gas: 71.7 ± 1.3 mN/m
293 K, c1 = 5.01e-05
  surface tension liquid-gas: 70.7 ± 1.3 mN/m
293 K, c1 = 0.0001
  surface tension liquid-gas: 70 ± 1.3 mN/m
293 K, c1 = 0.000501
  surface tension liquid-gas: 67.8 ± 1.3 mN/m
293 K, c1 = 0.001
  surface tension liquid-gas: 65.1 ± 1.3 mN/m
293 K, c1 = 0.002
  surface tension liquid-gas: 60.3 ± 1.2 mN/m
293 K, c1 = 0.00316
  surface tension liquid-gas: 56.4 ± 1.2 mN/m
293 K, c1 = 0.00398
  surface tension liquid-gas: 52.4 ± 1.2 mN/m
293 K, c1 = 0.00501
  surface tension liquid-gas: 50 ± 1.2 mN/m
293 K, c1 = 0.00631
  surface tension liquid-gas: 47.3 ± 1.2 mN/m
293 K, c1 = 0.00794
  surface tension liquid-gas: 44.3 ± 1.1 mN/m
293 K, c1 = 0.00891
  surface tension liquid-gas: 42.8 ± 1.1 mN/m
293 K, c1 = 0.01
  surface tension liquid-gas: 41.5 ± 1.1 mN/m
293 K, c1 = 0.0251
  surface tension liquid-gas: 40.9 ± 1.1 mN/m
293 K, c1 = 0.0501
  surface tension liquid-gas: 40.6 ± 1.1 mN/m
293 K, c1 = 0.1
  surface tension liquid-gas: 39.4 ± 1.1 mN/m
303 K, c1 = 1e-07
  surface tension liquid-gas: 71.2 ± 1.3 mN/m
303 K, c1 = 5.01e-07
  surface tension liquid-gas: 71.19 ± 1.3 mN/m
303 K, c1 = 1e-06
  surface tension liquid-gas: 71.19 ± 1.3 mN/m
303 K, c1 = 5.01e-06
  surface tension liquid-gas: 71.13 ± 1.3 mN/m
303 K, c1 = 1e-05
  surface tension liquid-gas: 71.06 ± 1.3 mN/m
303 K, c1 = 5.01e-05
  surface tension liquid-gas: 70.54 ± 1.3 mN/m
303 K, c1 = 0.0001
  surface tension liquid-gas: 69.94 ± 1.3 mN/m
303 K, c1 = 0.000501
  surface tension liquid-gas: 66.59 ± 1.3 mN/m
303 K, c1 = 0.001
  surface tension liquid-gas: 63.91 ± 1.2 mN/m
303 K, c1 = 0.002
  surface tension liquid-gas: 60.54 ± 1.2 mN/m
303 K, c1 = 0.00316
  surface tension liquid-gas: 56.13 ± 1.2 mN/m
303 K, c1 = 0.00398
  surface tension liquid-gas: 52.36 ± 1.2 mN/m
303 K, c1 = 0.00501
  surface tension liquid-gas: 49.44 ± 1.2 mN/m
303 K, c1 = 0.00631
  surface tension liquid-gas: 46.78 ± 1.1 mN/m
303 K, c1 = 0.00794
  surface tension liquid-gas: 43.72 ± 1.1 mN/m
303 K, c1 = 0.00891
  surface tension liquid-gas: 42.12 ± 1.1 mN/m
303 K, c1 = 0.01
  surface tension liquid-gas: 40.73 ± 1.1 mN/m
303 K, c1 = 0.0251
  surface tension liquid-gas: 40.01 ± 1.1 mN/m
303 K, c1 = 0.0501
  surface tension liquid-gas: 39.82 ± 1.1 mN/m
303 K, c1 = 0.1
  surface tension liquid-gas: 39 ± 1.1 mN/m
313 K, c1 = 1e-07
  surface tension liquid-gas: 69.6 ± 1.3 mN/m
313 K, c1 = 5.01e-07
  surface tension liquid-gas: 69.6 ± 1.3 mN/m
313 K, c1 = 1e-06
  surface tension liquid-gas: 69.59 ± 1.3 mN/m
313 K, c1 = 5.01e-06
  surface tension liquid-gas: 69.56 ± 1.3 mN/m
313 K, c1 = 1e-05
  surface tension liquid-gas: 69.53 ± 1.3 mN/m
313 K, c1 = 5.01e-05
  surface tension liquid-gas: 69.24 ± 1.3 mN/m
313 K, c1 = 0.0001
  surface tension liquid-gas: 68.89 ± 1.3 mN/m
313 K, c1 = 0.000501
  surface tension liquid-gas: 65.63 ± 1.3 mN/m
313 K, c1 = 0.001
  surface tension liquid-gas: 62.94 ± 1.2 mN/m
313 K, c1 = 0.002
  surface tension liquid-gas: 59.58 ± 1.2 mN/m
313 K, c1 = 0.00316
  surface tension liquid-gas: 55.17 ± 1.2 mN/m
313 K, c1 = 0.00398
  surface tension liquid-gas: 51.87 ± 1.2 mN/m
313 K, c1 = 0.00501
  surface tension liquid-gas: 48.85 ± 1.2 mN/m
313 K, c1 = 0.00631
  surface tension liquid-gas: 46.39 ± 1.1 mN/m
313 K, c1 = 0.00794
  surface tension liquid-gas: 43.12 ± 1.1 mN/m
313 K, c1 = 0.00891
  surface tension liquid-gas: 41.71 ± 1.1 mN/m
313 K, c1 = 0.01
  surface tension liquid-gas: 39.82 ± 1.1 mN/m
313 K, c1 = 0.0251
  surface tension liquid-gas: 39.43 ± 1.1 mN/m
313 K, c1 = 0.0501
  surface tension liquid-gas: 38.75 ± 1.1 mN/m
313 K, c1 = 0.1
  surface tension liquid-gas: 38.24 ± 1.1 mN/m

## CCCCCCCCCCCCCCCC[n+]1ccccc1.[Br-] [1-hexadecylpyridinium bromide] + O
293 K, c1 = 1e-08
  surface tension liquid-gas: 72.8 ± 1.3 mN/m
293 K, c1 = 5.01e-08
  surface tension liquid-gas: 72.8 ± 1.3 mN/m
293 K, c1 = 1e-07
  surface tension liquid-gas: 72.75 ± 1.3 mN/m
293 K, c1 = 5.01e-07
  surface tension liquid-gas: 72.7 ± 1.3 mN/m
293 K, c1 = 1e-06
  surface tension liquid-gas: 72.6 ± 1.3 mN/m
293 K, c1 = 5.01e-06
  surface tension liquid-gas: 71.7 ± 1.3 mN/m
293 K, c1 = 1e-05
  surface tension liquid-gas: 71.1 ± 1.3 mN/m
293 K, c1 = 2e-05
  surface tension liquid-gas: 69.8 ± 1.3 mN/m
293 K, c1 = 5.01e-05
  surface tension liquid-gas: 67.4 ± 1.3 mN/m
293 K, c1 = 0.0001
  surface tension liquid-gas: 63 ± 1.2 mN/m
293 K, c1 = 0.0002
  surface tension liquid-gas: 54.6 ± 1.2 mN/m
293 K, c1 = 0.000398
  surface tension liquid-gas: 45.5 ± 1.1 mN/m
293 K, c1 = 0.000631
  surface tension liquid-gas: 44.8 ± 1.1 mN/m
293 K, c1 = 0.000794
  surface tension liquid-gas: 45.3 ± 1.1 mN/m
293 K, c1 = 0.001
  surface tension liquid-gas: 44.4 ± 1.1 mN/m
293 K, c1 = 0.002
  surface tension liquid-gas: 44 ± 1.1 mN/m
293 K, c1 = 0.00398
  surface tension liquid-gas: 44.5 ± 1.1 mN/m
293 K, c1 = 0.00603
  surface tension liquid-gas: 44.1 ± 1.1 mN/m
293 K, c1 = 0.00794
  surface tension liquid-gas: 43.2 ± 1.1 mN/m
293 K, c1 = 0.01
  surface tension liquid-gas: 43.2 ± 1.1 mN/m
293 K, c1 = 0.0302
  surface tension liquid-gas: 39.4 ± 1.1 mN/m
293 K, c1 = 0.0603
  surface tension liquid-gas: 38.8 ± 1.1 mN/m
303 K, c1 = 1e-08
  surface tension liquid-gas: 71.2 ± 1.3 mN/m
303 K, c1 = 5.01e-08
  surface tension liquid-gas: 71.19 ± 1.3 mN/m
303 K, c1 = 1e-07
  surface tension liquid-gas: 71.18 ± 1.3 mN/m
303 K, c1 = 5.01e-07
  surface tension liquid-gas: 71.13 ± 1.3 mN/m
303 K, c1 = 1e-06
  surface tension liquid-gas: 71.07 ± 1.3 mN/m
303 K, c1 = 5.01e-06
  surface tension liquid-gas: 70.56 ± 1.3 mN/m
303 K, c1 = 1e-05
  surface tension liquid-gas: 69.97 ± 1.3 mN/m
303 K, c1 = 2e-05
  surface tension liquid-gas: 68.91 ± 1.3 mN/m
303 K, c1 = 5.01e-05
  surface tension liquid-gas: 66.38 ± 1.3 mN/m
303 K, c1 = 0.0001
  surface tension liquid-gas: 61.8 ± 1.2 mN/m
303 K, c1 = 0.0002
  surface tension liquid-gas: 53.41 ± 1.2 mN/m
303 K, c1 = 0.000398
  surface tension liquid-gas: 44.73 ± 1.1 mN/m
303 K, c1 = 0.000631
  surface tension liquid-gas: 44.03 ± 1.1 mN/m
303 K, c1 = 0.000794
  surface tension liquid-gas: 44.04 ± 1.1 mN/m
303 K, c1 = 0.001
  surface tension liquid-gas: 43.92 ± 1.1 mN/m
303 K, c1 = 0.002
  surface tension liquid-gas: 43.81 ± 1.1 mN/m
303 K, c1 = 0.00398
  surface tension liquid-gas: 43.79 ± 1.1 mN/m
303 K, c1 = 0.00603
  surface tension liquid-gas: 43.62 ± 1.1 mN/m
303 K, c1 = 0.00794
  surface tension liquid-gas: 42.83 ± 1.1 mN/m
303 K, c1 = 0.01
  surface tension liquid-gas: 42.75 ± 1.1 mN/m
303 K, c1 = 0.0302
  surface tension liquid-gas: 38.89 ± 1.1 mN/m
303 K, c1 = 0.0603
  surface tension liquid-gas: 38.02 ± 1.1 mN/m
313 K, c1 = 1e-08
  surface tension liquid-gas: 69.6 ± 1.3 mN/m
313 K, c1 = 5.01e-08
  surface tension liquid-gas: 69.59 ± 1.3 mN/m
313 K, c1 = 1e-07
  surface tension liquid-gas: 69.57 ± 1.3 mN/m
313 K, c1 = 5.01e-07
  surface tension liquid-gas: 69.54 ± 1.3 mN/m
313 K, c1 = 1e-06
  surface tension liquid-gas: 69.49 ± 1.3 mN/m
313 K, c1 = 5.01e-06
  surface tension liquid-gas: 69.04 ± 1.3 mN/m
313 K, c1 = 1e-05
  surface tension liquid-gas: 68.52 ± 1.3 mN/m
313 K, c1 = 2e-05
  surface tension liquid-gas: 67.58 ± 1.3 mN/m
313 K, c1 = 5.01e-05
  surface tension liquid-gas: 65.26 ± 1.3 mN/m
313 K, c1 = 0.0001
  surface tension liquid-gas: 60.65 ± 1.2 mN/m
313 K, c1 = 0.0002
  surface tension liquid-gas: 53.01 ± 1.2 mN/m
313 K, c1 = 0.000398
  surface tension liquid-gas: 44.56 ± 1.1 mN/m
313 K, c1 = 0.000631
  surface tension liquid-gas: 43.87 ± 1.1 mN/m
313 K, c1 = 0.000794
  surface tension liquid-gas: 43.86 ± 1.1 mN/m
313 K, c1 = 0.001
  surface tension liquid-gas: 43.75 ± 1.1 mN/m
313 K, c1 = 0.002
  surface tension liquid-gas: 43.68 ± 1.1 mN/m
313 K, c1 = 0.00398
  surface tension liquid-gas: 43.64 ± 1.1 mN/m
313 K, c1 = 0.00603
  surface tension liquid-gas: 43.53 ± 1.1 mN/m
313 K, c1 = 0.00794
  surface tension liquid-gas: 42.74 ± 1.1 mN/m
313 K, c1 = 0.01
  surface tension liquid-gas: 42.65 ± 1.1 mN/m
313 K, c1 = 0.0302
  surface tension liquid-gas: 38.9 ± 1.1 mN/m
313 K, c1 = 0.0603
  surface tension liquid-gas: 37.95 ± 1.1 mN/m

## O [water] + CCCCCCCCCCCCCCCC[n+]1ccccc1.[Br-]
293 K, c2 = 0
  surface tension liquid-gas: 72.8 ± 1.3 mN/m
303 K, c2 = 0
  surface tension liquid-gas: 71.2 ± 1.3 mN/m
313 K, c2 = 0
  surface tension liquid-gas: 69.6 ± 1.3 mN/m

## O [water] + CCCCCCCCCCCC[N+](C)(C)CC.[Br-]
293 K, c2 = 0
  surface tension liquid-gas: 72.8 ± 1.3 mN/m
303 K, c2 = 0
  surface tension liquid-gas: 71.2 ± 1.3 mN/m
313 K, c2 = 0
  surface tension liquid-gas: 69.6 ± 1.3 mN/m
